Assay results taken from ChEMBL document CHEMBL1201862, “PubChem BioAssay data set” (2004).
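Each compound was tested at five concentrations against cells in 96-well plates for 48 hours. The concentration for 50% growth inhibition is given as GI50.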 Calls of active or inactive are those of the source. No stated cut-off is given here; in the data, active = GI50 up to about 1.1 µM and inactive = higher.

Experiments:
Test in all cases: NCI-60 cell line screen, 48 h
OVCAR-8 = system: OVCAR-8
KM12 = system: KM12
NCI-H522 = system: NCI-H522
786-0 = system: 786-0
HCT-15 = system: HCT-15
HOP-62 = system: HOP-62
SF-268 = system: SF-268
HL-60 = system: HL-60
HCC 2998 = system: HCC 2998
NCI-H23 = system: NCI-H23
NCI-H460 = system: NCI-H460
SK-MEL-2 = system: SK-MEL-2
CCRF-CEM = system: CCRF-CEM
SF-539 = system: SF-539
COLO 205 = system: COLO 205
SNB-75 = system: SNB-75

SMILES | GI50 (OVCAR-8) | GI50 (KM12) | GI50 (NCI-H522) | GI50 (786-0) | GI50 (HCT-15) [µM] | GI50 (HOP-62) | GI50 (SF-268) | GI50 (HL-60) | GI50 (HCC 2998) | GI50 (NCI-H23) | GI50 (NCI-H460) | GI50 (SK-MEL-2) | GI50 (CCRF-CEM) | GI50 (SF-539) | GI50 (COLO 205) | GI50 (SNB-75)
CC1(C)OC(=O)C(=Cc2ccc(O)cc2)C(=O)O1 | > 100 µM (inactive) | > 100 µM (inactive) | > 100 µM (inactive) | > 100 µM (inactive) | > 100 | > 100 µM (inactive) | > 100 µM (inactive) | > 100 µM (inactive) | > 100 µM (inactive) | > 100 µM (inactive) | > 100 µM (inactive) | > 100 µM (inactive) | > 100 µM (inactive) | > 100 µM (inactive) | > 100 µM (inactive) | 
CC1=C(C(=O)Nc2ccc(Cl)c(Cl)c2)C(c2ccco2)C(C(=O)Nc2ccc(Cl)c(Cl)c2)=C(C)N1 | 11.2 µM (inactive) | 13.4 µM (inactive) | 5.73 µM (inactive) | 13 µM (inactive) | 11.5 | 14 µM (inactive) | 11.4 µM (inactive) | 19.3 µM (inactive) | 11.5 µM (inactive) | 17.8 µM (inactive) | 13.7 µM (inactive) | 12.4 µM (inactive) | 6.58 µM (inactive) | 13.8 µM (inactive) | 12.9 µM (inactive) | 13.9 µM (inactive)
COc1cc2c(c(C)c1O)[C@H]1COc3ccccc3[C@H]1O2 | 20.9 µM (inactive) | 24.7 µM (inactive) | 3.27 µM (inactive) | 16.6 µM (inactive) | 4.27 | 6.59 µM (inactive) | 15.2 µM (inactive) | 2.94 µM (inactive) | > 10 µM (inactive) | 13.2 µM (inactive) | 11.3 µM (inactive) | 3.16 µM (inactive) | 13.6 µM (inactive) | 8.41 µM (inactive) | 18.7 µM (inactive) | 3.95 µM (inactive)
CC(=O)N(C(C)=O)C1=C2c3ccccc3N(S(=O)(=O)c3ccccc3)C2n2c(=O)n(-c3ccccc3)c(=O)n2C1 (stereo not drawn) | 23.3 µM (inactive) | 34.7 µM (inactive) | 17.1 µM (inactive) | 38.6 µM (inactive) | 30.4 | 62.4 µM (inactive) | > 100 µM (inactive) | 23.3 µM (inactive) | 22.7 µM (inactive) | 26.5 µM (inactive) | 15.3 µM (inactive) | 22.9 µM (inactive) | 35 µM (inactive) | 19.9 µM (inactive) | 30.7 µM (inactive) | 14 µM (inactive)
Nc1cc2c(C3OC(CO)C(O)C3O)n[nH]c2c(=S)[nH]1 (stereo not drawn) | > 100 µM (inactive) | > 100 µM (inactive) | > 100 µM (inactive) | > 100 µM (inactive) | 94 | > 100 µM (inactive) | > 100 µM (inactive) | 41.2 µM (inactive) | > 100 µM (inactive) | > 100 µM (inactive) | > 100 µM (inactive) | 98.2 µM (inactive) | > 100 µM (inactive) | > 100 µM (inactive) | > 100 µM (inactive) | > 100 µM (inactive)
O=c1nc2sc3ccc4ccccc4c3n2nc1O | 94.6 µM (inactive) | > 100 µM (inactive) | 53.7 µM (inactive) | > 10 µM (inactive) |  | 23.8 µM (inactive) | 40.4 µM (inactive) | > 100 µM (inactive) | 54.8 µM (inactive) | 71.1 µM (inactive) | 39.3 µM (inactive) |  | 40.1 µM (inactive) | > 100 µM (inactive) | 62.4 µM (inactive) | 41.1 µM (inactive)
O=C1/C(=C/c2ccccc2Cl)COc2ccc(Br)cc21 | 56.9 µM (inactive) | 22.4 µM (inactive) | 20.6 µM (inactive) | 37.4 µM (inactive) |  | 92.7 µM (inactive) | > 100 µM (inactive) | 18.5 µM (inactive) | > 100 µM (inactive) | > 100 µM (inactive) | > 100 µM (inactive) | 82.8 µM (inactive) | 4.49 µM (inactive) | 52.8 µM (inactive) | 73.8 µM (inactive) | 30.4 µM (inactive)
NC(=O)N/N=C(/Cc1nc2ccc(C(=O)c3ccccc3)cc2nc1O)C(=O)Nc1ccc(C(F)(F)F)cc1[N+](=O)[O-] | 77.8 µM (inactive) | 84.5 µM (inactive) | 22.6 µM (inactive) | > 100 µM (inactive) | 50.7 | > 100 µM (inactive) | > 100 µM (inactive) | 42.1 µM (inactive) | 61.4 µM (inactive) | 84.7 µM (inactive) | 65 µM (inactive) | > 100 µM (inactive) | 36.5 µM (inactive) | 66.5 µM (inactive) | 25.5 µM (inactive) | 26 µM (inactive)
c1ccc(COc2cccc3cccnc23)cc1 | > 100 µM (inactive) | 61.4 µM (inactive) | 50.9 µM (inactive) | > 100 µM (inactive) |  | > 100 µM (inactive) | 28.4 µM (inactive) | 19.9 µM (inactive) | > 100 µM (inactive) | 44 µM (inactive) | > 100 µM (inactive) |  | 31.5 µM (inactive) | > 100 µM (inactive) | > 100 µM (inactive) | 67.9 µM (inactive)
CC(=O)OCC1OC(n2cc(I)c(=O)[nH]c2=O)C(OC(C)=O)C(OC(C)=O)C1OC(C)=O (stereo not drawn) | > 100 µM (inactive) | > 100 µM (inactive) | > 100 µM (inactive) | > 100 µM (inactive) | > 100 | > 100 µM (inactive) | > 100 µM (inactive) | > 100 µM (inactive) | > 100 µM (inactive) | > 100 µM (inactive) | > 100 µM (inactive) | > 100 µM (inactive) | > 100 µM (inactive) |  | > 100 µM (inactive) | 82.8 µM (inactive)
COC1OC(C)C(OCc2ccccc2)C(OS(=O)(=O)c2ccc(C)cc2)C1OS(=O)(=O)c1ccc(C)cc1 (stereo not drawn) | > 100 µM (inactive) | > 100 µM (inactive) | > 100 µM (inactive) | > 100 µM (inactive) | > 100 | > 100 µM (inactive) | > 100 µM (inactive) | > 100 µM (inactive) | > 100 µM (inactive) | > 100 µM (inactive) | > 100 µM (inactive) | > 100 µM (inactive) | > 100 µM (inactive) | > 100 µM (inactive) | > 100 µM (inactive) | > 100 µM (inactive)
O=C1NC2(NC(=O)C1=O)Nc1ccccc1S2 | 58.7 µM (inactive) | > 80.4 µM (inactive) | 22.1 µM (inactive) | 21.7 µM (inactive) | 33.7 | > 83.8 µM (inactive) | 24.8 µM (inactive) | 21.6 µM (inactive) | > 65.5 µM (inactive) | > 63 µM (inactive) | 51.5 µM (inactive) | 55.8 µM (inactive) | 20.2 µM (inactive) | 27 µM (inactive) | 21.6 µM (inactive) | 68.7 µM (inactive)
CCCc1nc(NC#N)nc(C(=O)Nc2ccccc2)c1CC | > 100 µM (inactive) | > 100 µM (inactive) | > 100 µM (inactive) | > 100 µM (inactive) | > 100 | > 100 µM (inactive) | > 100 µM (inactive) | > 100 µM (inactive) | > 100 µM (inactive) | > 100 µM (inactive) | > 100 µM (inactive) | > 100 µM (inactive) |  | > 100 µM (inactive) |  | > 100 µM (inactive)
CCOC1=C2N=C(Cc3ccc(F)cc3)NC2C(=O)c2ccccc21 (stereo not drawn) | 20.6 µM (inactive) | 27.5 µM (inactive) | 8.67 µM (inactive) | 20.8 µM (inactive) |  | 58.9 µM (inactive) |  | 4.68 µM (inactive) | 25.8 µM (inactive) | 18.3 µM (inactive) | 12.6 µM (inactive) | 17.6 µM (inactive) | 8.26 µM (inactive) | 13.3 µM (inactive) | 23.3 µM (inactive) | 15.7 µM (inactive)
N#CCC(=O)Nc1ccccc1O | > 100 µM (inactive) | > 100 µM (inactive) | > 100 µM (inactive) | > 100 µM (inactive) | > 100 | > 100 µM (inactive) | > 100 µM (inactive) | > 100 µM (inactive) | > 100 µM (inactive) | > 100 µM (inactive) | > 100 µM (inactive) | > 100 µM (inactive) | > 100 µM (inactive) | > 100 µM (inactive) | > 100 µM (inactive) | > 100 µM (inactive)
CC12C=C[C@]3(CC[C@@H]4[C@@](C)(CO)CCC[C@]4(C)C3CC1)C2 (stereo partly drawn) | 21.4 µM (inactive) | > 44.9 µM (inactive) | 11.5 µM (inactive) | 16 µM (inactive) | 17 | 14.6 µM (inactive) | 17.9 µM (inactive) | 17.9 µM (inactive) | > 10 µM (inactive) | 18 µM (inactive) | 21 µM (inactive) | 17.3 µM (inactive) | 19.9 µM (inactive) | 16.4 µM (inactive) | 16.4 µM (inactive) | > 10 µM (inactive)
CC(c1ccccc1)N1O[C@]12CC[C@@]1(C)C(CCCC13OCCO3)C2 (stereo partly drawn) | 16.7 µM (inactive) | 21.3 µM (inactive) | 17.2 µM (inactive) | 19.4 µM (inactive) | 23.3 | > 100 µM (inactive) | 43.6 µM (inactive) |  | 75.5 µM (inactive) | 38.4 µM (inactive) | 20.4 µM (inactive) |  |  | 56.2 µM (inactive) | 17.8 µM (inactive) | 22.1 µM (inactive)
C#CCOCn1cnc2c(S)ncnc21 | > 100 µM (inactive) | > 100 µM (inactive) | > 100 µM (inactive) | > 100 µM (inactive) | > 100 | > 100 µM (inactive) | > 100 µM (inactive) | > 100 µM (inactive) | > 100 µM (inactive) | > 100 µM (inactive) | > 100 µM (inactive) | > 100 µM (inactive) | > 100 µM (inactive) |  | > 100 µM (inactive) | 13.6 µM (inactive)
